The text below walks through data of PMC8174188 (Neuron, 2021).

In general, Kd refers to the free concentration of one partner at which half of the binding sites on the other are occupied at equilibrium, for simple one-to-one binding. Lower therefore signals higher affinity. A word on the stoichiometry N: it is the number of molecules, sites or subunits per partner or assembly.

In data set [1] the target is T1, dSARM1^ARM (Drosophila SARM1 ARM domain) (Drosophila melanogaster, UniProt Q6IDD9).
T1 sequence (Q6IDD9 307-678): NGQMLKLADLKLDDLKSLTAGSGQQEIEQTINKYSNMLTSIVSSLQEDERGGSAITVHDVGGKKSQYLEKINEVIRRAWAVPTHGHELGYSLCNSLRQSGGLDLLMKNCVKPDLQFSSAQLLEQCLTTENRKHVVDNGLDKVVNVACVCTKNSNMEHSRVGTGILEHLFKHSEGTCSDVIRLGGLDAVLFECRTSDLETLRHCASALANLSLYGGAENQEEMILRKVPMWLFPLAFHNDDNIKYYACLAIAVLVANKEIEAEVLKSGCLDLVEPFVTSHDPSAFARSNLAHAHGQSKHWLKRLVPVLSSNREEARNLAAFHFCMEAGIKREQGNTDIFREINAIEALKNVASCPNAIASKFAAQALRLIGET
Put plainly: ITC. It is filed as binding.

For data set [2], the target named is dSARM1^ARM (Drosophila SARM1 ARM domain) (Drosophila melanogaster, UniProt Q6IDD9, R437A). Put plainly: ITC. It is filed as binding.
Chain of dSARM1^ARM (Drosophila SARM1 ARM domain) (Drosophila melanogaster, UniProt Q6IDD9, R437A) (Q6IDD9 307-678 R437A): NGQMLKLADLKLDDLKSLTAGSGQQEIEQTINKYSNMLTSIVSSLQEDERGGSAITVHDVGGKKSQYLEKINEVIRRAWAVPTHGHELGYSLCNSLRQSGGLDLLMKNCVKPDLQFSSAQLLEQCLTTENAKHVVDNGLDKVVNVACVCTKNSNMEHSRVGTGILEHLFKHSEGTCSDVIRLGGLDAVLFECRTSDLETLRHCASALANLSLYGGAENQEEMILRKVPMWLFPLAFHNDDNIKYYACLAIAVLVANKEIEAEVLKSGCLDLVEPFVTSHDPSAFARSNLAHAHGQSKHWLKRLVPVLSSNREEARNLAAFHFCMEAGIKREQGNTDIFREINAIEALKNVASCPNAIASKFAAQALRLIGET
Data set [3] concerns the molecule itself. Put plainly: cryo-EM structure.

Turning to `NC(=O)c1ccc[n+]([C@@H]2O[C@H](COP(=O)([O-])OP(=O)(O)OC[C@H]3O[C@@H](n4cnc5c(N)ncnc54)[C@H](O)[C@@H]3O)[C@@H](O)[C@H]2O)c1` [NAD^+], the affinity in data set [1], expressed as Kd, was 54.2 ± 6.4 µM.

Molecule `NC(=O)c1ccc[n+]([C@@H]2O[C@H](COP(=O)([O-])O)[C@@H](O)[C@H]2O)c1` [NMN] showed a Kd in data set [2] of 12.45 ± 0.03 µM.

B1: human SARM1 lacking the mitochondrial localisation signal (residues 28-724) (enzyme, UniProt Q6SZW1-1 28-724, looked up)
chain: LAVPGPDGGGGTGPWWAAGGRGPREVSPGAGTEVQDALERALPELQQALSALKQAGGARAVGAGLAEVFQLVEEAWLLPAVGREVAQGLCDAIRLDGGLDLLLRLLQAPELETRVQAARLLEQILVAENRDRVARIGLGVILNLAKEREPVELARSVAGILEHMFKHSEETCQRLVAAGGLDAVLYWCRRTDPALLRHCALALGNCALHGGQAVQRRMVEKRAAEWLFPLAFSKEDELLRLHACLAVAVLATNKEVEREVERSGTLALVEPLVASLDPGRFARCLVDASDTSQGRGPDDLQRLVPLLDSNRLEAQCIGAFYLCAEAAIKSLQGKTKVFSDIGAIQSLKRLVSYSTNGTKSALAKRALRLLGEEVPRPILPSVPSWKEAEVQTWLQQIGFSKYCESFREQQVDGDLLLRLTEEELQTDLGMKSGITRKRFFRELTELKTFANYSTCDRSNLADWLGSLDPRFRQYTYGLVSCGLDRSLLHRVSEQQLLEDCGIHLGVHRARILTAAREMLHSPLPCTGGKPSGDTPDVFISYRRNSGSQLASLLKVHLQLHGFSVFIDVEKLEAGKFEDKLIQSVMGARNFVLVLSPGALDKCMQDHDCKDWVHKEIVTALSCGKNIVPIIDGFEWPEPQVLPEDMQAVLTFNGIKWSHEYQEATIEKIIRFLQGRSSRDSSAGSDTSLEGAAPMGPT
B1: the “stoichiometry N” value in data set [3] stood at 8.
